What all share (format): in vivo
One experiment deals with kochia (Kochia scoparia). Put plainly: Test D pre-/postemergence: kochia. The text has this: (§1) Seeds of plant species selected from bluegrass (annual bluegrass, Poa annua), blackgrass (Alopecurus myosuroides), canarygrass (Phalaris minor), chickweed (common chickweed, Stellaria media), galium (catchweed bedstraw, Galium aparine), bromegrass, downy (downy bromegrass, Bromus tectorum), field poppy (Papaver rhoeas), field violet (Viola arvensis), foxtail, green (green foxtail, Setaria viridis), deadnettle (henbit deadnettle, Lamium amplexicaule), ryegrass, Italian (Italian ryegrass, Lolium multiflorum), kochia (Kochia scoparia), lambsquarters (Chenopodium album), oilseed rape (Brassica napus), pigweed (Amaranthus retroflexus), Russian thistle (Salsola iberica), chamomile (scentless chamomile, Matricaria inodora), speedwell (bird's-eye speedwell, Veronica persica), barley, spring (spring barley, Hordeum vulgare), wheat, spring (spring wheat, Triticum aestivum), buckwheat, wild (wild buckwheat, Polygonum convolvulus), mustard, wild (wild mustard, Sinapis arvensis), oat, wild (wild oat, Avena fatua), radish, wild (wild radish, Raphanus raphanistrum), windgrass (Apera spica-venti), barley, winter (winter barley, Hordeum vulgare), and wheat, winter (winter wheat, Triticum aestivum) were planted into a silt loam soil and treated preemergence with test chemicals formulated in a non-phytotoxic solvent mixture which included a surfactant. At the same time, these same crop and weed species were planted in pots containing the planting medium comprising spaghnum peat moss, vermiculite, wetting agent and starter nutrients and treated with postemergence applications of the test chemicals formulated in the same manner. Plants ranged in height from 2 to 18 cm (1- to 4-leaf stage).
(§2) Treated plants and controls were maintained in a controlled growth environment for 14 to 21 days after which time all species were compared to controls and visually evaluated. Plant response ratings, summarized in Table D, are based on a scale of 0 to 100 where 0 is no effect and 100 is complete control. A dash (-) response means no test result.

Experiment [1] deals with foxtail, green (green foxtail, Setaria viridis). Put plainly: Test D pre-/postemergence: foxtail, green.
Description: as §1, §2

Experiment [2] relates to sedge, umbrella (small-flower umbrella sedge, Cyperus difformis). Put plainly: Test C flooded paddy test: sedge, umbrella. The settings on record: scale 0 to 100 (0 no effect, 100 complete control); for pest or weed control at 62 g/ha / pest or weed control at 125 g/ha / pest or weed control at 250 g/ha / pest or weed control at 31 g/ha: Cyperus difformis, read-out: Plant response rating, Sedge, Umbrella. The method in brief:
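Rating: visual, 0–100 (100 = complete control), versus untreated controls after 13 to 15 greenhouse days. Treatment went into paddy water held at 3 cm over the soil, on plants grown to two leaves.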

The test system of experiment [3] is oat, wild (wild oat, Avena fatua). The experiment in a line: Test D pre-/postemergence: oat, wild.
Description: as §1, §2

Experiment [4] deals with field poppy (Papaver rhoeas). Put plainly: Test D pre-/postemergence: field poppy.
Description: as §1, §2

The test system of experiment [5] is sedge, umbrella (small-flower umbrella sedge Cyperus difformis). The experiment in a line: Test B flooded paddy: sedge, umbrella. The conditions noted are these: Flood, applied to paddy water at 2-leaf stage, visually evaluated after 13 to 15 days. The method, boiled down: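 Visual ratings (0 = no effect, 100 = complete control) versus untreated controls were taken 13–15 days after treatment of greenhouse plants. Treatment was added to paddy water held at 3 cm depth on 2-leaf-stage seedlings.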

[6] abbreviates: Postemergence, 31 g ai/ha, scale 0 to 100 (0 no effect, 100 complete control).
[7] abbreviates: Postemergence, 62 g ai/ha, scale 0 to 100 (0 no effect, 100 complete control).
[8] abbreviates: Postemergence, 125 g ai/ha, scale 0 to 100, 0 no effect, 100 complete control.
Where [9] appears, read: Postemergence, 250 g ai/ha, scale 0 to 100 (0 no effect, 100 complete control).
[10] abbreviates: Postemergence, 16 g ai/ha, scale 0 to 100.
[11] abbreviates: Preemergence, 16 g ai/ha, scale 0 to 100 (0 no effect, 100 complete control).
The mark [12] stands for this setting: Preemergence, 31 g ai/ha, scale 0 to 100 (0 no effect, 100 complete control).
Setting [13] is: Preemergence, 62 g ai/ha, scale 0 to 100.
[14] abbreviates: Preemergence, 125 g ai/ha, scale 0 to 100.
Where [15] appears, read: Preemergence, 250 g ai/ha, scale 0 to 100.
Where [16] appears, read: Flood (flooded paddy test), 62 g ai/ha, visual rating after 13 to 15 days.
The mark [17] stands for this setting: Flood (flooded paddy test), 125 g ai/ha, visual rating after 13 to 15 days.
Where [18] appears, read: Flood (flooded paddy test), 250 g ai/ha, visual rating after 13 to 15 days.

Read-outs that look alike come from different tables or passages of the source.

For `Cc1nn(-c2ccc(F)cc2)nc1Cc1ccnc(C(F)(F)F)c1` [Compound 16, 4-[[2-(4-fluorophenyl)-5-methyl-2H-1,2,3-triazol-4-yl]methyl]-2-(trifluoromethyl)pyridine], the “Plant response rating: Kochia” value in the experiment on kochia (Kochia scoparia) (setting [6]) turned out to be 90; with kochia (Kochia scoparia) (setting [7]), 95; with kochia (Kochia scoparia) (setting [8]) it was 75; in the experiment on kochia (Kochia scoparia) (setting [9]), 95. Also, the “Plant response rating, Kochia” value is reported as 85 in the experiment on kochia (Kochia scoparia) (setting [10]); 30 in the experiment with kochia (Kochia scoparia) (setting [11]); 30 in the experiment on kochia (Kochia scoparia) (setting [12]); 90 in the experiment on kochia (Kochia scoparia) (setting [13]); 90 in the experiment on kochia (Kochia scoparia) (setting [14]); 100 with kochia (Kochia scoparia) (setting [15]). Also, the “Plant response rating: Foxtail, Green” value stood at 30 in experiment [1] (setting [6]), 80 in experiment [1] (setting [7]), 90 in experiment [1] (setting [8]) and 95 in experiment [1] (setting [9]). In addition, the “Plant response rating, Foxtail, Green” value was 30 in experiment [1] (setting [10]); 25 in experiment [1] (setting [11]); 100 in experiment [1] (setting [12]); 100 in experiment [1] (setting [13]); 100 in experiment [1] (setting [14]); 100 in experiment [1] (setting [15]). The pest or weed control at 62 g/ha in experiment [2] (setting [16]) came to 90%. Besides, the pest or weed control at 125 g/ha in experiment [2] (setting [17]) is 95%. In addition, in experiment [2] (setting [18]), the pest or weed control at 250 g/ha amounted to 95%. The pest or weed control at 31 g/ha in experiment [2] (Flood, 31 g ai/ha) was 80%. Further, the “Plant response rating: Oat, Wild” value in experiment [3] (setting [6]) was 10; in experiment [3] (setting [7]), 30; in experiment [3] (setting [8]), 45; in experiment [3] (setting [9]), 50. Moreover, the “Plant response rating, Oat, Wild” value was determined as 0 in experiment [3] (setting [10]); 0 in experiment [3] (setting [11]); 10 in experiment [3] (setting [12]); 10 in experiment [3] (setting [13]); 100 in experiment [3] (setting [14]); 100 in experiment [3] (setting [15]). The “Plant response rating: Field Poppy” value in experiment [4] (setting [6]), in experiment [4] (setting [7]), in experiment [4] (setting [8]) and in experiment [4] (setting [9]) was 100 throughout. Besides, the “Plant response rating, Field Poppy” value is listed as 0 in experiment [4] (setting [10]); 100 in experiment [4] (setting [11]); 100 in experiment [4] (setting [12]); 100 in experiment [4] (setting [13]); 100 in experiment [4] (setting [14]); 100 in experiment [4] (setting [15]).

For `COc1nn(-c2ccc(C(F)(F)F)cc2)nc1Cn1ccc(C(F)(F)F)n1` [Compound 17, 4-methoxy-2-[4-(trifluoromethyl)phenyl]-5-[[3-(trifluoromethyl)-1H-pyrazol-1-yl]methyl]-2H-1,2,3-triazole], the pest or weed control at 62 g/ha in experiment [2] (setting [16]) was found to be 20%. The pest or weed control at 125 g/ha in experiment [2] (setting [17]) is 30%. The pest or weed control at 250 g/ha in experiment [2] (setting [18]) came to 75%. Moreover, in experiment [2] (Flood, 31 g ai/ha), the pest or weed control at 31 g/ha amounted to 0%.

Consider `Cc1nn(-c2ccc(C(F)(F)F)cc2)nc1Cc1cccc(C(F)(F)F)c1` [Compound 124], for which the “Plant response rating, Sedge, Umbrella” value was found to be 90 in experiment [2] (setting [17]); 90 in experiment [2] (setting [18]); 50 in experiment [2] (Flood, 31 g ai/ha); 90 in experiment [2] (Flood, 62 g ai/ha).

For `CCc1nn(-c2ccc(C(F)(F)F)cc2)nc1Oc1cccc(OC(F)(F)F)c1` [Compound 125, 4-ethyl-5-[3-(trifluoromethoxy)phenoxy]-2-[4-(trifluoromethyl)phenyl]-2H-1,2,3-triazole], the pest or weed control at 125 g/ha in experiment [2] (setting [17]) was 80%. For the same compound, the pest or weed control at 250 g/ha in experiment [2] (setting [18]) stood at 85%. In addition, the pest or weed control at 31 g/ha in experiment [2] (Flood, 31 g ai/ha) was determined as 0%. Moreover, in experiment [2] (Flood, 62 g ai/ha), the pest or weed control at 62 g/ha worked out at 40%.

Consider `Cc1nn(-c2ccnc(C(F)(F)F)c2)nc1Cc1ccnc(C(F)(F)F)c1` [Compound 137], for which the “Plant response rating: Kochia” value in the experiment on kochia (Kochia scoparia) (setting [6]) is listed as 85; in the experiment with kochia (Kochia scoparia) (setting [7]), 90; with kochia (Kochia scoparia) (setting [8]), 95; in the experiment on kochia (Kochia scoparia) (setting [9]), 100. Also, the “Plant response rating, Kochia” value in the experiment on kochia (Kochia scoparia) (setting [10]) was found to be 75. Besides, the “Plant response rating: Foxtail, Green” value came to 50 in experiment [1] (setting [6]), 70 in experiment [1] (setting [7]), 80 in experiment [1] (setting [8]) and 95 in experiment [1] (setting [9]). In addition, the “Plant response rating, Foxtail, Green” value in experiment [1] (setting [10]) is recorded as 40. Also, the “Plant response rating: Oat, Wild” value in experiment [3] (setting [6]) stood at 10; in experiment [3] (setting [7]) it was 20; in experiment [3] (setting [8]), 35; in experiment [3] (setting [9]), 50. Further, in experiment [3] (setting [10]), the “Plant response rating, Oat, Wild” value was 0. The “Plant response rating, Sedge, Umbrella (0 to 100 scale, 0 is no effect, 100 is complete control)” value in experiment [5] (250 g ai/ha) came out at 70. Also, the “Plant response rating: Field Poppy” value in experiment [4] (setting [6]) came to 40; in experiment [4] (setting [7]), 100; in experiment [4] (setting [8]) it was 100; in experiment [4] (setting [9]) it was 100. In addition, the “Plant response rating, Field Poppy” value in experiment [4] (setting [10]) was 30.

As to `CCCc1nn(-c2ccc(F)cc2)nc1Cc1ccnc(C(F)(F)F)c1` [Compound 153], the “Plant response rating, Sedge, Umbrella (0 to 100 scale, 0 is no effect, 100 is complete control)” value in experiment [5] (250 g ai/ha) worked out at 90.

As to `Cc1nn(-c2ccc(C(F)(F)F)c(F)c2)nc1Cc1ccnc(C(F)(F)F)c1` [Compound 162], in experiment [5] (125 g ai/ha), the “Plant response rating, Sedge, Umbrella (0 to 100 scale, 0 is no effect, 100 is complete control)” value was 80.

With `CCc1nn(-c2ccc(F)cc2)nc1Oc1ccnc(C(F)(F)F)c1` [Compound 166], the “Plant response rating, Sedge, Umbrella (0 to 100 scale, 0 is no effect, 100 is complete control)” value in experiment [5] (125 g ai/ha) was determined as 70.

Consider `CCCc1nn(-c2ccc(C(F)(F)F)c(F)c2)nc1Oc1ccnc(C(F)(F)F)c1` [Compound 185], for which, in experiment [5] (250 g ai/ha), the “Plant response rating, Sedge, Umbrella (0 to 100 scale, 0 is no effect, 100 is complete control)” value came to 95.

As to `CCOc1nn(-c2ccc(Br)cc2)nc1Cc1ccnc(C(F)(F)F)c1` [Compound 189], in experiment [5] (125 g ai/ha), the “Plant response rating, Sedge, Umbrella (0 to 100 scale, 0 is no effect, 100 is complete control)” value was 0.

The values are drawn from US9302999B2, “Substituted triazoles as herbicides” (E. I. DU PONT DE NEMOURS AND COMPANY, priority 2012, dated 2016).
